Measured values published in US7297796B2, “Sulfamoyl benzamide derivatives and methods of their use” (Adolor Corporation, priority 2004, dated 2007).

Assays:
[1] = system: L5 SNL-induced tactile allodynia; experiment: Neuropathic pain assay: L5 SNL-induced tactile allodynia (von Frey); type: in vivo, rat; conditions: L5 SNL rats, n = 7-8/group
Protocol: Male Sprague-Dawley rats (120-250 g, Harlan Laboratories, Columbus, Ohio) were housed in pairs and allowed free access to food and water throughout the study. Room temperature and humidity were maintained at 21° C. and 70%, respectively. Nerve injury was produced with tight ligation of the left L5 spinal nerve (Kim, S. H., and J. M. Chung, Pain, 50, 355-363 (1992); LaBuda, C. J. and Fuchs, P. N., Exp Neurol., 163, 490-494(2000); LaBuda, C. J. and Fuchs, P. N., Neurosci Letters, 290, 137-140(2000); LaBuda, C. J., Donahue, R., Fuchs, P. N., Pain, 94, 59-63, (2001)). Briefly, animals were placed in the prone position to access the left L4-L6 spinal nerves. Under magnification, approximately one third of the L6 transverse process was removed. The L5 spinal nerve was identified and carefully dissected free from the adjacent L4 spinal nerve and then tightly ligated using 6-0 silk suture. The wound was treated with an antiseptic solution, the muscle layer was sutured, and the wound was closed with wound clips. Sham-operated surgical controls were prepared in the same manner, but the L5 spinal nerve was not […]. All housing conditions and experimental procedures were performed in accordance with the ethical guidelines of the IASP and the Adolor Corporation Animal Care and Use Committee.
Seven to ten animals per group were used for all behavioral assays. After a 7-10 day post-surgical recovery, animals were tested for baseline sensitivity to tactile stimulation of both hindpaws. Allodynic animals were defined as animals having a threshold of less than 7.5 grams of pressure applied to the injured hindpaw. Tactile sensitivity was evaluated using von Frey monofilaments before and after treatment. […] Thirty minutes after treatment, tactile sensitivity was evaluated. Five to seven days later, animals were tested using a different compound. Each animal was tested three times with different compounds. All behavioral testing was performed between 9:00 AM and 5:00 PM in a well-illuminated room with white background noise.
Animals were placed in a Plexiglas chamber (20 cm×10.5 cm×40.5 cm) and habituated for 15 minutes. The chamber was positioned on top of a mesh screen so that von Frey monofilaments could be presented to the plantar surfaces of both hindpaws. Measurements of tactile sensitivity for each hindpaw were obtained using the up/down method (Dixon, W. J., Annu Rev Pharmacol Toxicol 20, 441-462, 1980) with seven von Frey monofilaments (0.04, 0.07, 0.16, 0.4, 1, 6, and 15 grams). Each trial started with a von Frey force of 0.4 g delivered to the right hindpaw and then the left hindpaw for approximately 1-2 sec each. If there was no withdrawal response, the next higher force was delivered. If there was a response, the next lower force was delivered. This procedure was performed until no response was made at the highest force (15 grams) or until four stimuli were administered following the initial response. The 50% paw withdrawal threshold for each paw was calculated using the following formula: [Xth]log=[vFr]log+ky where [vFr] is the force of the last von Frey filament used, k=0.2249 which is the average interval (in log units) between the von Frey monofilaments, and y is a value that depends upon the pattern of withdrawal responses (Dixon, Id.). […] Testing for tactile sensitivity was performed twice and the mean 50% withdrawal value assigned as the tactile sensitivity for the right and left paws for each animal.
Tactile sensitivity for both hindpaws before and after treatments were analyzed using one-way analysis of variance (ANOVA) followed by post-hoc comparisons (protected t-test) for group differences. An alpha level of 0.05 was used for all analyses.

CB1 receptor [2] = target: T1, CB1 receptor (Homo sapiens, UniProt P21554); experiment: hCB1 receptor binding, [3H]CP55940 displacement; conditions: human cloned CB1 receptor
T1 construct: expressed in transfected cells; membranes
Protocol: (§1) Ki values in receptor binding experiments were determined by Cheng-Prusoff correction of IC50 values derived from automated nonlinear regression analysis of sigmoidal titration curves using a three-parameter modification (slope set to 1.0) of the four-parameter equation described in Cheng, Y.-C. and W. H. Prusoff, Biochem. Pharmacol. 22:3099-3108 (1973) and DeLean et al., Am. J. Physiol. 235:E97-E102 (1978).
(§2) Chinese hamster ovary cells (CHO-K1), stably transfected with either hCB1 or hCB2, were washed two times with cold PBS, scraped from 500 cm^2 tissue culture plates, and pelleted by centrifugation at 1000×g for 10 min. The supernatant was discarded and the pellet was resuspended in Tris assay buffer (50 mM Tris HCl, pH 7.8, containing 1.0 mM EGTA, 5.0 mM MgCl2, […], and 0.5 mg/mL aprotinin), homogenized with a Polytron homogenizer (Brinkmann) at a setting of 1 for 20 sec and centrifuged at 38,000×g for 20 min at 4° C. The pellet was resuspended in Tris assay buffer and aliquots of 1 mg protein/mL were stored at −80° C. for further use.
(§3) Binding assays were performed by incubating 0.2-0.6 nM (34,000-100,000 dpm) [^3H]CP55940 with membranes prepared from cells expressing cloned human CB1 or CB2 receptors in buffer A (50 mM Tris HCl, pH 7.0, 5.0 mM MgCl2, 1.0 mM EGTA and 1.0 mg/mL fatty acid free bovine serum albumin). After incubation for 60 min at room temperature for the hCB2 binding assay or 120 min at 30° C. for the hCB1 assay, the assays were filtered through GF/C filters that had been pre-soaked overnight in 0.5% (w/v) PEI and 0.1% BSA in water. The filters were rinsed 6 times with one mL of cold wash buffer (50 mM Tris HCl, pH 7.0, 5.0 mM MgCl2, 1.0 mM EGTA and 0.75 mg/mL fatty acid free bovine serum albumin), 30 μL of MicroScint 20 was added to each filter and the radioactivity on the filters determined by scintillation spectroscopy. Nonspecific binding was determined in the presence of 10 μM WIN55212-2.

CB2 receptor [3] = target: T2, CB2 receptor (Homo sapiens, UniProt P34972); experiment: hCB2 receptor binding, [3H]CP55940 displacement; conditions: human cloned CB2 receptor
T2 construct: expressed in transfected cells; membranes
Protocol: as §1, §2, §3

CB1 receptor [4] = target: T1, CB1 receptor; experiment: hCB1-mediated stimulation of [35S]GTPγS binding; type: biochemical; conditions: agonist; read-out: in vitro CB1 receptor agonist potency EC50
Protocol: (§4) EC50 values in functional assays were also derived from automated nonlinear regression analysis of sigmoidal titration curves using the three-parameter modification of the four-parameter equation.
as §2, with “The pellet was resuspended in Tris assay buffer and aliquots of 1 mg protein/mL were stored at −80° C. for further use.” left out
hCB1-Mediated stimulation of [^35S]GTPγS binding was measured in a mixture containing 100-150 pM [^35S]GTPγS, 150 mM NaCl, 45 mM MgCl2, […], 0.4 mM DTT, 1 mM EGTA, 1 mg/mL fatty acid free BSA, 25 μg of membrane protein and agonist in a total volume of 250 μL of buffer A in 96 well Basic Flashplates (Perkin Elmer). After incubation at room temperature for 2 hours the plates were centrifuged at 800×g at 4° C. for 5 min and the radioactivity bound to the membranes was determined by scintillation spectrometry using the Topcount (Perkin Elmer).

CB2 receptor [5] = target: T2, CB2 receptor; experiment: hCB2-mediated [35S]GTPγS binding; type: biochemical; conditions: for EC50: agonist, read-out: in vitro CB2 receptor agonist potency EC50
Protocol: as §4, §2
hCB2-Mediated [^35S]GTPγS binding was measured in the same way except the assay mixture contained […] and the incubation time was 6 hours. [^35S]GTPγS binding in rat cerebellar homogenate was determined in a mixture containing 40-60 pM [^35S]GTPγS, homogenate assay buffer (50 mM Tris-HCl, 3 mM MgCl2, 0.2 mM EGTA), 100 mM NaCl, 10 mM MgCl2, […], 20 μg homogenate protein/well and agonist in a total volume of 250 μL in 96 well Basic Flashplates (Perkin Elmer). After incubation at 30° C. for 2 hours, the plates were centrifuged at 800×g at 4° C. for 5 min and the radioactivity bound to the membrane was determined by scintillation spectrometry using the Topcount (Perkin Elmer).

T2 sequence (P34972 whole entry): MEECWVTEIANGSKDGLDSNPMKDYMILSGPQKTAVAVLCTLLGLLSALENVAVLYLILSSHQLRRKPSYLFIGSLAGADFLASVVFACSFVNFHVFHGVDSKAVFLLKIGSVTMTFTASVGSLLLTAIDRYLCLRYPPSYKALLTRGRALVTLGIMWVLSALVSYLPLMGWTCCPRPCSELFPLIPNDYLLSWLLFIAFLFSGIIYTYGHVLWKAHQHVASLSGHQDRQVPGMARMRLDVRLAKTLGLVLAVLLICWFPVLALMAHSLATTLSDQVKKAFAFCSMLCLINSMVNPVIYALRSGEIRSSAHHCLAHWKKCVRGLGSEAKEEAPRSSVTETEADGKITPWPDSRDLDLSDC
T1 sequence (P21554 whole entry): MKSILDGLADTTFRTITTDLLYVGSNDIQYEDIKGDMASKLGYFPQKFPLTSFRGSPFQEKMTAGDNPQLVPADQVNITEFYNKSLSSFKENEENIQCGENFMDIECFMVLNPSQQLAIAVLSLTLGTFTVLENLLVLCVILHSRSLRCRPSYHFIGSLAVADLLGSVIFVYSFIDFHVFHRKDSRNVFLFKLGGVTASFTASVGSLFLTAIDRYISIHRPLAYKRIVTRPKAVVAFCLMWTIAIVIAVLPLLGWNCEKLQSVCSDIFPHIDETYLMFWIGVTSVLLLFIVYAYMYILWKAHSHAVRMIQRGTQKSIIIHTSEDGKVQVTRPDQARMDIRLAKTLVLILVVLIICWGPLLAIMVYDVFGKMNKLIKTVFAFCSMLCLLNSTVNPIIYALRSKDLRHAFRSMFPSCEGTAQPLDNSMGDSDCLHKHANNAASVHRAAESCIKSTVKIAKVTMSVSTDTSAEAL

Row | Compound | Anti-Allodynia [%] ([1]; 3 mg/kg) | Ki (CB1 receptor [2]) | Ki (CB2 receptor [3]) | EC50 (CB1 receptor [4]) | EC50 (CB2 receptor [5]) | also measured
1 | CN1CCCCC1Cn1cc(C(=O)c2cc([N+](=O)[O-])ccc2I)c2ccccc21 (centres unmarked) [AM1241, reference compound] | 27.5 ± 10.1% | – | – | – | – | –
2 | Cc1c(C(=O)c2cccc3ccccc23)c2cccc3c2n1[C@H](CN1CCOCC1)CO3 [WIN, WIN 55,212-2, reference compound] | – | – | – | – | – | Anti-Allodynia [%] ([1]; 2.5 mg/kg): 75.2 ± 13.8%
3 | CC1(C)[C@@H]2CC[C@@](C)(C2)[C@@H]1NC(=O)c1ccc(Br)c(S(=O)(=O)N2CCCCC2)c1 [Compound 17, 4-Bromo-3-(piperidine-1-sul-fonyl)-N-(1,3,3-tri-methylbicyclo[2.2.1]hept-2-yl)-benzamide] | – | 93 nM | 13.1 nM | 326 nM | 18.2 nM | –
4 | Cc1ccc(C(=O)N[C@H]2C(C)(C)[C@@H]3CC[C@@]2(C)C3)cc1S(=O)(=O)N1CCOCC1 [Compound 26, 4-Methyl-3-(morpholine-4-sul-fonyl)-N,S-(1,3,3-tri-methyl-bicyclo[2.2.1]-hept-2-yl)-benzamide] | 61.7 ± 13.6 % | 121 nM | 3.7 nM | 2000 nM | 7.8 nM | Anti-Allodynia [%] ([1]; 1 mg/kg): 53.5 ± 14.2%; Anti-Allodynia [%] ([1]; 6 mg/kg): 61.1 ± 12.6 %; Anti-Allodynia [%] ([1]; 10 mg/kg): 44.0 ± 16.2%
5 | CN(Cc1ccccc1)S(=O)(=O)c1cc(C(=O)NC2C(C)(C)[C@@H]3CC[C@]2(C)C3)ccc1Br (stereo in doubt) [Compound 23, 3-(Benzyl-methyl-sulfamoyl)-4-bromo-N-(1,3,3-tri-methyl-bicyclo[2.2.1]hept-2-yl)-benzamide] | – | > 1000 nM | 10.3 nM | – | – | IC50 (CB2 receptor [5]; antagonist, read-out: in vitro CB2 receptor antagonist potency IC50): 13.7 nM
